Measurements taken from patent US20030139368A1, “Antithrombotic and/or anti-inflammatory composition combining purine activity and NSAID activity” (priority 2000, published 2003).

Columns and labels:
[1] = tested on: rat platelets; test: Aggregation of rat platelets (platelet rich plasma) stimulated by ADP, aggregometer; format: cell-based; details: for aggregation: without AMP 80%
Protocol: Blood was collected on a citrate buffer from rats that had not received any treatment or from humans who had not received any treatment during the two weeks preceding collection of the blood sample. Platelet rich plasma was prepared by centrifugation using known methods. Measurements were performed using an aggregometer marketed under the name “Chrono-log”. The measurements were processed and digitized using an “MP30 Biopac” data acquisition system.

[2] = tested on: human platelets; test: Response of human platelets stimulated by collagen; format: cell-based; details: collagen 0.19 mg/ml; substance 0.6 mM
Protocol: Platelet rich plasma was prepared by centrifugation using known methods.
Measurements were performed using an aggregometer marketed under the name “Chrono-log”. The measurements were processed and digitized using an “MP30 Biopac” data acquisition system.
We studied the response of human platelets stimulated by collagen (0.19 mg/ml, Biodata). Two parameters were measured: the latency time (elapsed time between bringing the platelets into contact with collagen and the beginning of aggregation) and the maximum amplitude of aggregation.

[3] = tested on: male mice; test: Anti-inflammatory effect: carrageenan-induced inflammation in air pocket, leukocyte count in exudate; format: in vivo; details: for Number of leukocytes: 100 mg/kg/day by gastric gavage on days 3, 4, 5, exudate 4 hours after carrageenan, controls 9.57 ± 0.48; for % inhibition: 100 mg/kg/day by gastric gavage, versus controls
Protocol: The test was performed on male mice weighing 20 g. This protocol lasted 5 days. On day 1, we injected 3 cm^3 of air in the dorsal part via the subcutaneous route. The resultant air pockets were reinflated on days 2, 3 and 4 with 1 cm^3 of air. […] We induced inflammation by injection of 1 ml of a 2% (weight/volume) suspension of carrageenan in PBS buffer into the air pocket. After 4 hours, the pockets were washed with 2 ml of PBS and the exudates were collected. Aliquot parts were diluted to 1:1 with a 0.01% solution of methylene blue in a PBS buffer. We then performed counting of the cells (principally neutrophils) whose accumulation was induced by the inflammation.

[4] = tested on: gastric mucosa; test: Gastric toxicity, macroscopic and histologic observation of the stomach; format: in vivo; details: 100 mg/kg by gavage, fasted rats, 3 hours
Protocol: This test was performed on Sprague Dawley rats (IFFA CREDO, l'Arbresle, France). The rats were in a fasting state the evening before the experiment (but drinking water was available ad libitum). […] Three hours later, the rats were sacrificed by a lethal dose of pentobarbital. The stomach was removed, opened along the greater curvature and rinsed with water. The gastric mucosa was photographed and digitized using a Macintosh G3 computer equipped with a program (NIH, USA) and a video card (Scion, USA). The stomach was fixed with buffered formalin and then processed with the conventional histological techniques for paraffin inclusion. The sections (5 μm) were then stained with hematoxylin-eosin-safranin.
Two observations were performed: macroscopic (after the stomach was collected, under the microscope) and histologic.

**Q.** What does the source list for Nc1ncnc2c1ncn2[C@@H]1O[C@H](COP(=O)(O)O)[C@@H](O)[C@H]1O [AMP, (5′-O-phosphate)adenosine]?
**A.** aggregation ([1]; ADP 20 μM in the presence of 2.5 mM AMP): 40%; aggregation ([1]; ADP 20 μM in the presence of 5.0 mM AMP): 20%; effect on aggregation already induced ([1]; ADP 20 μM, AMP 10 mM added 30 seconds later): immediate disaggregation; latency time multiplied by (factor) [2]: circa 1.5; maximum response (maximum amplitude of aggregation) to collagen [2]: not modified

**Q.** With O=C(Nc1ncnc2c1ncn2[C@@H]1O[C@H](CO)[C@@H](O)[C@H]1O)c1ccccc1O [Example 3, adenosine N-salicylyl] as the compound, how does the Number of leukocytes [3] read?
**A.** 3.80 ± 0.80 millions/ml

**Q.** And the “% inhibition” value [3]?
**A.** 60%

**Q.** And the “damage to the gastric wall (macroscopic and histologic)” value [4]?
**A.** did not cause damage to the gastric wall

**Q.** Which “aggregation compared with AMP (5 mM)” value ([1]; ADP 20 μM, adenosine 4 mM in place of AMP 5 mM) does the source give for Nc1ncnc2c1ncn2[C@@H]1O[C@H](CO)[C@@H](O)[C@H]1O [adenosine] here?
**A.** Comparable results

**Q.** CC(=O)Oc1ccccc1C(=O)O [aspirin, acetylsalicylic acid] was tested. Which Number of leukocytes [3] did it give?
**A.** 6.40 ± 0.77 millions/ml

**Q.** What about the “% inhibition” value [3] of the same compound?
**A.** 33%

**Q.** How did the “inhibition of platelet aggregation” value ([1]; sodium salicylate 7.5 mM added to plasma, then ADP 20 μM) turn out when O=C([O-])c1ccccc1O.[Na+] [sodium salicylate] was run?
**A.** No significant inhibition
